Consider seven compounds from patent publication US5134235A, “Process for separating folinic acid” (Eprova A.G., priority 1987, dated 1992).

Like-named read-outs stand apart in the source and are kept apart here.

The conditions of data set [1]: cited: J. A. Straw et al, Cancer Research 44, 3114 (1984); cited from earlier work.
The conditions of data set [2]: cited: J. A. Straw et al, Cancer Research 44, 3114 (1984); cited from earlier work. The source holds these as a separate data set.
A short description of another data set: Solubility in water. Format: physicochemical. Conditions: for solubility in water (in words): qualitative; for solubility: water.
Data set [3] in a line: Stability of folinic acid at higher pH during recrystallization. The class given is physicochemical. The settings on record: pH above the 8.5 to 12 range of the first recrystallization.

Take `Nc1nc2c(c(=O)[nH]1)N(C=O)[C@H](CNc1ccc(C(=O)N[C@@H](CCC(=O)O)C(=O)O)cc1)CN2` [5-CHO-(6R)-H4 PteGlu]: the biochemical activity result in data set [1] is “biochemically inactive”. In addition, in data set [2], the “elimination through the urine” value was “slowly eliminated through the urine” and the metabolism entry is listed as “barely metabolized”.
Consider `Nc1nc(=O)c2c([nH]1)NC[C@H](CNc1ccc(C(=O)N[C@@H](CCC(=O)O)C(=O)O)cc1)N2C=O` [(6S)-folinic acid, N-(5-formyl-(6S)-5,6,7,8-tetrahydro-pteroyl)-L-glutamic acid], for which the “solubility in water (in words)” value in the data set “Solubility in water” is given as “barely soluble”.
The same measure, in the same setting: the entry for `Nc1nc(=O)c2c([nH]1)NC[C@H](CNc1ccc(C(=O)N[C@@H](CCC(=O)O)C(=O)O)cc1)N2C=O` [Potassium-(6S)-folinate] is “readily soluble”; for `Nc1nc(=O)c2c([nH]1)NC[C@H](CNc1ccc(C(=O)N[C@@H](CCC(=O)O)C(=O)O)cc1)N2C=O` [Sodium-(6S)-folinate] it is “readily soluble”.
As a reminder, the solubility is how much of the substance goes into solution per volume. Turning to `Nc1nc(=O)c2c([nH]1)NC[C@H](CNc1ccc(C(=O)N[C@@H](CCC(=O)O)C(=O)O)cc1)N2C=O` [calcium-(6S)-folinate, Calcium-(6S)-folinate], the “strength of aqueous solution that can be formed” value in “Solubility in water” (at 20° C., aqueous solution) was found to be 0.95%. Moreover, the solubility in the data set “Solubility in water” (at 40° C., read-out: Solubility in water) stood at 15 mg/mL.
For the compound `Nc1nc2c(c(=O)[nH]1)N(C=O)C(CNc1ccc(C(=O)N[C@@H](CCC(=O)O)C(=O)O)cc1)CN2` (stereo partly drawn) [folinic acid, N-(5-formyl-(6R,S)-5,6,7,8-tetrahydro-pteroyl)-L-glutamic acid], the “stability at higher pH” value in data set [3] is recorded as “appreciably lower”.
`Nc1nc(=O)c2c([nH]1)NC[C@H](CNc1ccc(C(=O)N[C@@H](CCC(=O)O)C(=O)O)cc1)N2C=O` [magnesium-(6S)-folinate, Magnesium-(6S)-folinate] yielded a Solubility in water in “Solubility in water” (at 20° C.) of 2.4 g/100 ml. The solubility in the data set “Solubility in water” (general statement in description, temperature not given, read-out: water solubility) was > 20 mg/mL.
